{"source": "paper PMC10726355", "about": "“Small Molecule Ligands of the BET-like Bromodomain, SmBRD3, Affect Schistosoma mansoni Survival, Oviposition, and Development” (Journal of Medicinal Chemistry, 2023)", "key": {"SmBRD3(2) [1]": {"biological_target": "T1, SmBRD3(2) (Schistosoma mansoni, UniProt A0A5K4ESD7)", "T1 sequence (A0A5K4ESD7 entry or part of it)": "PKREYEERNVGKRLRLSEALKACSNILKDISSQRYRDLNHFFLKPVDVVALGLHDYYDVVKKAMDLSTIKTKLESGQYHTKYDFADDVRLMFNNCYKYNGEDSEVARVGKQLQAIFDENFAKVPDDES", "test": "biochemical", "format": "binding"}, "S. mansoni schistosomula": {"test_system": "S. mansoni schistosomula", "test": "Ex vivo schistosomula screening (Roboworm high content imaging)", "design": "species or system Schistosoma mansoni", "conditions": "72 h; for EC50: Schistosoma mansoni, ethyl esters (R=Et), 95% CI in brackets", "method": "A high-throughput imaging platform that quantifies both phenotype and motility ex vivo, was used to screen compounds against schistosomula; their effects were assessed as previously described.[20] Briefly, the schistosomula stage of S. mansoni was obtained by mechanical transformation of cercariae, dispensed into 384-well tissue culture plates, and dosed with 20 μM (Figure 7) or 10 μM (Figure S48) of each compound. Following 72 h coincubation of the schistosomula and compound, the plate was subjected to high content imaging to quantify the effects of each compound.\nS. mansoni schistosomula were obtained by mechanical transformation from cercariae as previously described,[64] distributed in 384-well tissue culture plates (PerkinElmer, catalogue number 6007460) at 120 parasites/well and dosed with the selected compounds as previously reported.[65]−[68] For this study, each compound (as 10 mM DMSO stock solution) was initially tested at two concentration points (20 and 10 μM final concentration, in duplicates) in at least four independent screens (Z′ scores above 0.35).[69] Each screen contained both positive (10 μM auranofin (AUR) in 0.625% DMSO) and negative (0.625% DMSO) controls. […] Following 72 h schistosomula/compound coincubation, the plate was analyzed by the Roboworm platform.[70] EC50 values were calculated from the titrated concentrations by nonlinear regression, after log transformation of concentrations and data normalization using GraphPad Prism 7.02."}, "S. mansoni adult worms": {"test_system": "S. mansoni adult worms", "test": "Ex vivo adult worm screening (motility, IVLEs, pairing)", "design": "species or system Schistosoma mansoni", "conditions": "72 h", "method": "S. mansoni adult worms were recovered by hepatic portal vein perfusion from TO mice (Mus musculus HsdOLa:TO - Tuck Ordinary; Envigo, UK) that were percutaneously infected 7 weeks earlier with 180 cercariae.[65],[71] Following perfusion, schistosomes were washed and processed as previously described.[65],[66] Subsequently, schistosome pairs were seeded into 48 well tissue culture plates (1 worm pair/well, in duplicate) and dosed with the compounds (20 μM in 0.2% DMSO). DMSO (0.2%) and praziquantel (10 μM in 0.1% DMSO) were also included as negative and positive controls, respectively. Parasite motility was assessed by a digital image processing-based system (WormassayGP2),[66] modified after Wormassay.[72]In vitro laid eggs (IVLEs) were enumerated and the presence or absence of paired worms was noted."}, "S. mansoni miracidia": {"test_system": "S. mansoni miracidia", "test": "Ex vivo miracidia to sporocyst transformation screening", "design": "species or system Schistosoma mansoni", "conditions": "48 h", "method": "S. mansoni miracidia were obtained by hatching of schistosome eggs as previously described.[73] The resulting miracidial suspension was collected, washed with Chernin’s balanced salt solution (CBSS),[73] and enumerated prior to being used for ex vivo miracidia to sporocyst screens as previously reported.[66],[73] Each compound was tested at 0.5, 2.0, 5.0, 10, and 25 μM final concentrations (in 1% DMSO). Each treatment was set up in duplicate (15–25 miracidia/well). Each titration was performed in three independent experiments (two technical replicates per data point). Parasites cultured in CBSS (containing 1% DMSO) were included as negative controls. After 48 h incubation at 26 °C in the dark, dead, fully transformed and partially transformed miracidia were enumerated as previously described.[74],[75]"}, "CAD solubility assay": {"test": "CAD solubility assay", "format": "physicochemical", "conditions": "phosphate buffered saline, pH 7.4, phosphate buffered saline at pH 7.4; read-out: Aqueous Solubility by CAD", "method": "A CAD solubility assay was carried out by Physchem Team, Discovery Analytical, NCE Molecular Discovery at GSK. 5 μL of 10 mM DMSO stock solution was diluted to 100 μL with pH 7.4 phosphate buffered saline, equilibrated for 1 h at room temperature, and filtered through Millipore MultiscreenHTS-PCF filter plates (MSSL BPC). The filtrate was quantified using a suitably calibrated charged aerosol detector.[45]"}, "chromLogD assay": {"test": "chromLogD assay", "format": "physicochemical", "conditions": "reversed phase HPLC column (Gemini NX C18), pH 7.4", "method": "Lipophilicity: a chromLogD assay was carried out by the Physchem Team, Discovery Analytical, NCE Molecular Discovery at GSK. The chromatographic hydrophobicity index (CHI)[46],[47] values were measured using reversed phase HPLC column (50 × 2 mm […] Gemini NX C18, Phenomenex, UK) with fast acetonitrile gradient at starting mobile phase of pHs 2, 7.4, or 10.5. CHI values were derived directly from the gradient retention times using calibration parameters for standard compounds. The CHI value approximates to the volume % organic concentration when the compound elutes. CHI was linearly transformed into a chromLogD[48] value by least-squares fitting of experimental CHI values to calculated cLogP values for over 20000 research compounds."}, "adult male S. mansoni": {"test_system": "adult male S. mansoni", "test": "Determination of compound parasite permeability (LCMS of worm lysate)", "format": "in vitro ADME, Schistosoma mansoni"}, "[2]": {"test": "Compound conversion in media with or without worms (LCMS)", "format": "in vitro ADME", "conditions": "media in the presence or absence of worms; 20 μM; 24 h", "method": "As the low solubility of the ethyl ester derivatives prevented us from determining their affinity for SmBRD3(2) using ITC, it is possible that these compounds are themselves inhibitors of SmBRD3(2). Alternatively, the ethyl esters could function as pro-drugs that release the corresponding acid in the parasite. To investigate compound permeability, adult worms were treated with 20 μM of the acid 15 or the ethyl ester 22 for 24 h, and then the media exchanged three times. The worms were then lysed and the levels of the acid 15 or the ethyl ester 22 were determined using LCMS (Figure S50).\nFigure S-52. A. Estimation of the concentration of 15 and 22 in media after incubation with 22 in the presence and absence of S. mansoni. The concentration estimations were calculated as an average (presence of worm n=3, no worm n=2) from the analysis media in the presence (5 worms per well) or absence of worms, with error bars representing the s.e.m. B. Estimation of the concentration of 1 and 2 in media after incubation with 2 in the presence and absence of S. mansoni. The concentration estimations were calculated as an average (presence of worm n=2, no worm n=1) from the analysis of media in the presence (5 worms per well) or absence of worms with error bars representing the […]"}, "SmBRD3(1,2) [3]": {"biological_target": "SmBRD3(1,2) (Schistosoma mansoni, UniProt A0A5K4ESD7)", "sequence (A0A5K4ESD7 entry or part of it)": "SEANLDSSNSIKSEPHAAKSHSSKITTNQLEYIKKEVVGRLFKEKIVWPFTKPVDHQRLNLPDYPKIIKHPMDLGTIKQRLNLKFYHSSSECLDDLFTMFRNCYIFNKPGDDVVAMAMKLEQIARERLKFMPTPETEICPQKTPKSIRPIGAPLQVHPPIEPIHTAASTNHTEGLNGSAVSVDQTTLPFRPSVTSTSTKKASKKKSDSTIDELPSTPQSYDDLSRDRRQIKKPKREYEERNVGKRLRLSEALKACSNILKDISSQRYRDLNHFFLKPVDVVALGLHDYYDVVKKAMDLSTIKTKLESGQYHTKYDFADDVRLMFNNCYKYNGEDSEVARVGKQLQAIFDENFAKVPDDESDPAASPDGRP", "test": "biochemical", "format": "binding", "conditions": "for N number, binding to SmBRD3(1,2): ITC stoichiometry, n=1 ± error of curve fit; for Kd: ITC"}, "SmBRD3(2) [4]": {"biological_target": "T1, SmBRD3(2)", "test": "Differential scanning fluorimetry (thermal shift), SmBRD3(2)", "format": "binding", "conditions": "DSF; 50 μM compound", "method": "Reported ΔTm values are the mean of two replicates.\nDifferential scanning fluorimetry assay\nThe differential scanning fluorimetry (DSF) or thermal stability assays were carried out following the protocol described by Niesen et al. and data were analysed as described previously.8 Thermal melting experiments were carried out using the Mx3005p real-time PCR machine (Agilent) and employing a protein concentration of 5 μM for the schistosomal bromodomains [SmBRD3(2), […]\nthe DMSO content was 0.5% (v/v). Buffer conditions were 50 mM HEPES buffer, pH 7.5, 500 mM NaCl and a 1:500 dilution of SYPRO® Orange (Invitrogen, CA) was used. The 96-well PCR plates were sealed and centrifuged for 2 min at 1000 rpm at 25 °C before measurement. The temperature was raised with a step of 1 °C per 30 s from 25 °C to 85 °C, and fluorescence readings were taken at each interval. […]\nIsothermal titration calorimetry experiments were performed on a MicroCal PEAQ-ITC Automated or Manual (Malvern) and analysed with the MicroCal PEAQ-ITC Analysis software (Malvern 1.1.0.1262) using a single binding site model. […]\nMale adult schistosomes were seeded into 24-well tissue culture plates (5 worms/well), dosed with compounds (20 µM in 0.2% DMSO v/v) and incubated for 24 h at 37 °C in 5% CO2. […] When ready for processing, worms were removed from the −80 °C and subject to 3 rounds of repeated snap freeze:thawing. […]"}, "SmBRD3(1,2) [5]": {"test_system": "SmBRD3(1,2)", "test": "Differential scanning fluorimetry (thermal shift), SmBRD3(1,2)", "conditions": "DSF; 50 μM compound", "protocol": "difference between the transition midpoints of sample and reference wells containing protein without inhibitor in the same plate. Reported ΔTm values are the mean of two replicates.\nIsothermal titration calorimetry experiments were performed on a MicroCal PEAQ-ITC Automated or Manual (Malvern) and analysed with the MicroCal PEAQ-ITC Analysis software (Malvern 1.1.0.1262) using a single binding site model. For each experiment, the first data point was removed from the analysis. The proteins were dialysed at 4 °C overnight in a Slide-A-LyzerR MINI Dialysis Device (2000 MWCO; Thermo Scientific Life Technologies) into 50 mM HEPES, 150 mM NaCl containing 0.2% DMSO; pH 7.4. Proteins were centrifuged to remove aggregates (3 min, 3000 rpm, 25 °C).\nCompounds were dissolved as a DMSO stock solution and diluted to the required concentration using dialysis buffer (DMSO free) and to a final DMSO concentration of 0.2% (unless otherwise specified). The cell was stirred at 750 rpm, reference power set to 5 μcal/s and temperature held at 25 °C. After an initial delay of 60 s, 19 x 2 μL injections (first injection 0.4 μL) were performed with a spacing of 180 s. […]"}, "[6]": {"conditions": "20 μM (Figure 7) or 10 μM (Figure S48)"}, "[7]": {"conditions": "SmBRD3(1,2) Kd, n = 1 ± error of the curve fit"}}, "note": "“Also recorded” adds a separate entry of the source. Where two headings read alike, the source gives them in different places.", "data": [{"smiles": "CCOC(=O)c1ccc(-c2ccc3c(c2)[C@H](Nc2ccc4ncccc4c2)C[C@H](C)N3C(C)=O)cc1", "note": "[Compound 22, Ethyl 4-{(2S,4R)-1-Acetyl-2-methyl-4-[(quinolin-6-yl)amino]-1,2,3,4-tetrahydroquinolin-6-yl}benzoate]", "values": [{"measurement": "SmBRD3(2) Kd", "setting": "SmBRD3(2) [1]", "result": "No binding"}, {"measurement": "SmBRD3(2) Kd, Repeat 1", "setting": "SmBRD3(2) [1]", "result": "No binding"}, {"measurement": "Antischistosomula activity at 10 μM", "setting": "S. mansoni schistosomula; 10 μM", "result": "active"}, {"measurement": "Effect on schistosomula motility", "setting": "S. mansoni schistosomula; [6]", "result": "greatest effects; also recorded: strong effects"}, {"measurement": "Effect on schistosomula phenotype", "setting": "S. mansoni schistosomula; [6]", "result": "greatest effects; also recorded: strong effects"}, {"measurement": "EC50", "setting": "S. mansoni schistosomula; read-out: Schistosomla Movement EC50", "result": 3300, "unit": "nM"}, {"measurement": "EC50", "setting": "S. mansoni schistosomula; read-out: Schistosomla Phenotype EC50", "result": 1110, "unit": "nM"}, {"measurement": "Effect on adult worm movement", "setting": "S. mansoni adult worms; 20 μM in 0.2% DMSO", "result": "substantial effects; also recorded: reduced"}, {"measurement": "Effect on egg count (in vitro laid eggs)", "setting": "S. mansoni adult worms; 20 μM", "result": "reduced"}, {"measurement": "Effect on worm pairing", "setting": "S. mansoni adult worms; 20 μM", "result": "reduced"}, {"measurement": "Effect on miracidia to sporocyst transformation", "setting": "S. mansoni miracidia; 0.5-25 μM in 1% DMSO, 26 °C", "result": "concentration-dependent inhibition; also recorded: substantial and concentration-dependent effect"}, {"measurement": "Concentration at which the majority of miracidia were prevented from transforming into sporocysts", "setting": "S. mansoni miracidia", "result": 2.00, "unit": "µM"}, {"measurement": "solubility at 1 h", "setting": "CAD solubility assay", "result": 13, "unit": "µM"}, {"measurement": "chromatographic logD", "setting": "chromLogD assay", "result": 5.95}, {"measurement": "Worm permeability", "setting": "adult male S. mansoni; adult worms, 20 μM, 24 h", "result": "high worm permeability"}, {"measurement": "Conversion of ester to acid 15 in the worm", "setting": "adult male S. mansoni; worms treated with 20 μM for 24 h, LCMS", "result": "can be converted from the ester to the acid in the worm"}, {"measurement": "Quantity of compound found in lysed adult worms", "setting": "adult male S. mansoni; worms treated with 20 μM of the same compound for 24 h, LCMS", "result": "High quantities"}, {"measurement": "Conversion in media (ester hydrolysis / deacetylation)", "setting": "[2]", "result": "some ester hydrolysis"}]}, {"smiles": "CC(=O)N1c2ccc(-c3ccc(C(=O)O)cc3)cc2[C@H](Nc2ccc(Cl)cc2)C[C@@H]1C", "note": "[I-BET726 (8), I-BET726, reference compound]", "values": [{"measurement": "N number, binding to SmBRD3(1,2)", "setting": "SmBRD3(1,2) [3]", "result": "1.66 ± 6.7e-2"}, {"measurement": "Kd", "setting": "SmBRD3(1,2) [3]; [7]", "result": "1520 ± 520", "unit": "nM"}, {"measurement": "Kd", "setting": "SmBRD3(1,2) [3]; SmBRD3(1,2) pKd", "result": 1580, "unit": "nM"}, {"measurement": "N number, binding to SmBRD3(2), Repeat 1", "setting": "SmBRD3(2) [1]; ITC stoichiometry, Repeat 1", "result": "1.12 ± 4.2e-2"}, {"measurement": "N number, binding to SmBRD3(2), Mean", "setting": "SmBRD3(2) [1]; ITC stoichiometry, mean of repeats", "result": "1.12 ± 4.2e-2"}, {"measurement": "Kd", "setting": "SmBRD3(2) [1]; SmBRD3(2) Kd, ITC, single value ± error of the curve fit or mean of 2-3 repeats ± s.e.m.", "result": "1850 ± 361", "unit": "nM"}, {"measurement": "Kd", "setting": "SmBRD3(2) [1]; SmBRD3(2) Kd, Repeat 1, ITC, single run ± error of curve fit, Repeat 1", "result": "1850 ± 361", "unit": "nM"}, {"measurement": "Kd", "setting": "SmBRD3(2) [1]; SmBRD3(2) pKd, ITC", "result": 2000, "unit": "nM"}, {"measurement": "Thermal stabilisation (ΔTm) of SmBRD3(2)", "setting": "SmBRD3(2) [4]", "result": "stabilize both SmBRD3(1,2) and SmBRD3(2)"}, {"measurement": "Thermal stabilisation (ΔTm) of SmBRD3(1,2)", "setting": "SmBRD3(1,2) [5]", "result": "stabilize both SmBRD3(1,2) and SmBRD3(2)"}]}, {"smiles": "CC(=O)Oc1cc(-c2c(C)noc2C)cc(C(O)c2ccccc2)c1", "note": "(stereo not shown) [OXFBD03 (2), OXFBD03, reference compound]", "values": [{"measurement": "N number, binding to SmBRD3(1,2)", "setting": "SmBRD3(1,2) [3]", "result": "1.17 ± 1.7e-2"}, {"measurement": "Kd", "setting": "SmBRD3(1,2) [3]; [7]", "result": "675 ± 97.6", "unit": "nM"}, {"measurement": "Kd", "setting": "SmBRD3(1,2) [3]; SmBRD3(1,2) pKd", "result": 631, "unit": "nM"}, {"measurement": "SmBRD3(2) Kd, Repeat 1", "setting": "SmBRD3(2) [1]; ITC, single run ± error of curve fit, Repeat 1", "result": "No binding"}, {"measurement": "SmBRD3(2) Kd", "setting": "SmBRD3(2) [1]; ITC, single value ± error of the curve fit or mean of 2-3 repeats ± s.e.m.", "result": "No detectable binding"}, {"measurement": "Conversion in media (ester hydrolysis / deacetylation)", "setting": "[2]", "result": "rapidly deacetylated"}]}]}
